US11076595B2, “1-(n,n-disubstituted carbamoyl) 4-(substituted sulfonyl)triazolin-5-one derivative, 4-(n,n-disubstituted carbamoyl) 1-(substituted sulfonyl)triazolin-5-one derivative, and herbicide containing said derivative as active ingredient” (HOKKO CHEMICAL INDUSTRY CO., LTD., priority 2017, dated 2021)

Tests used:
Assay type in all cases: in vivo
Lindernia pyxidaria [1] = assay: Test Example 11: herbicidal effect test by soil treatment in paddy field; conditions: 120 g/10a active ingredient, 14 days after treatment
Procedure, shortened: (§1)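 Seeds were sown 0-1 cm deep in puddled, fertilised paddy soil in Wagner pots and kept under about 3 cm of flooding in a greenhouse. Diluted emulsifiable concentrate was added dropwise right after sowing at 120 g a.i. per 10 are. Suppression (%) came from dry weight versus untreated pots after 14 days, two replicates.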

Scirpus juncoides [2] = assay: as above; conditions: 120 g/10a active ingredient, 14 days after treatment
Procedure, shortened: as §1

Echinochloa crus-galli [3] = assay: as above; conditions: 120 g/10a active ingredient, 14 days after treatment
Procedure, shortened: as §1

Monochoria vaginalis [4] = assay: as above; conditions: 120 g/10a active ingredient, 14 days after treatment
Procedure, shortened: as §1

Lindernia pyxidaria [5] = assay: Test Example 12: herbicidal effect test by treatment during growing period in paddy field; conditions: 120 g/10a; treatment seven days after sowing in flooded paddy pot; assessed 14 days after treatment
Experimental: (§2) This test was performed with two replications per one formulation concentration plot, and 14 days after the formulation treatments, the weed suppression rate (%) was determined according to the following equation (Math. 2). Weed suppression rate (%)=(1−average dry weight (g) of plants in treated plots/average dry weight (g) of plants in untreated plots)×100 [Math. 2]
(§3) A Wagner pot having an area of 1/10000 are was filled with paddy field soil and after adding water, a chemical fertilizer (N:P:K=17:17:17) was mixed, followed by puddling. Thereafter, 30 grains of each of Echinochloa crus-galli, broad-leaved weed (Lindernia pyxidaria, Monochoria vaginalis) and Scirpus juncoides seeds were sown to a depth of 0 to 1 cm. Immediately after the sowing, the pot was flooded, and the depth of water was kept at about 3 cm. The pot was subsequently managed in a glass greenhouse. Seven Days after sowing, an emulsifiable concentrate prepared according to Formulation Example 15 by using the compound shown in Table 10 below was diluted with water, and a predetermined amount of the water-diluted formulation was added dropwise. The application rate of the active ingredient, by conversion, corresponded to 120 g per 10 are. The test was performed with two replications per one formulation concentration plot, and 14 days after the formulation treatments, the weed suppression rate (%) was determined according to the equation (Math. 2).

Scirpus juncoides [6] = assay: as above; conditions: 120 g/10a; treatment seven days after sowing in flooded paddy pot; assessed 14 days after treatment
Experimental: as §2, §3

Echinochloa crus-galli [7] = assay: as above; conditions: 120 g/10a; treatment seven days after sowing in flooded paddy pot; assessed 14 days after treatment
Experimental: as §2, §3

Monochoria vaginalis [8] = assay: as above; conditions: 120 g/10a; treatment seven days after sowing in flooded paddy pot; assessed 14 days after treatment
Experimental: as §2, §3

| Structure (SMILES) | Weed suppression rate (%) Lindemia pyxidaria (Lindernia pyxidaria [1]) | Weed suppression rate (%) Scirpus juncoides (Scirpus juncoides [2]) | Weed suppression rate (%) Echinochloa crus-galli (Echinochloa crus-galli [3]) | Weed suppression rate (%) Monochoria vaginalis (Monochoria vaginalis [4]) | Weed suppression rate (%) Lindemia pyxidaria (Lindernia pyxidaria [5]) | Weed suppression rate (%) Scirpus juncoides (Scirpus juncoides [6]) | Weed suppression rate (%) Echinochloa crus-galli (Echinochloa crus-galli [7]) | Weed suppression rate (%) Monochoria vaginalis (Monochoria vaginalis [8]) |
| --- | --- | --- | --- | --- | --- | --- | --- | --- |
| CC(C)N(C(=O)n1cnn(S(=O)(=O)c2ccc(F)cc2)c1=O)c1c(F)cc(F)cc1F [Compound 11-479] | 100% | 100% | 100% | 80% | 70% | 80% | 100% | 80% |
| CC(C)N(C(=O)n1cnn(S(=O)(=O)c2ccc(F)cc2)c1=O)c1c(F)c(F)cc(F)c1F [Compound 11-480] | 90% | 90% | 100% | 80% | 80% | 100% | 100% | 70% |
| CC(C)N(C(=O)n1cnn(S(=O)(=O)c2ccc(F)cc2)c1=O)c1ccc(Br)cc1Cl [Compound 11-486] | 90% | 80% | 90% | 80% | 70% | 60% | 60% | 70% |
| CC(C)N(C(=O)n1cnn(S(=O)(=O)c2ccccc2Cl)c1=O)c1ccccc1F [Compound 11-502] | 80% | 90% | 90% | 80% | 80% | 90% | 90% | 80% |
| CC(C)N(C(=O)n1cnn(S(=O)(=O)c2ccccc2Cl)c1=O)c1cccc(F)c1F [Compound 11-511] | 100% | 100% | 100% | 90% | 80% | 100% | 100% | 100% |
| CC(C)N(C(=O)n1cnn(S(=O)(=O)c2ccccc2Cl)c1=O)c1ccc(F)c(F)c1F [Compound 11-515] | 90% | 100% | 100% | 80% | 70% | 100% | 100% | 100% |
| CC(C)N(C(=O)n1cnn(S(=O)(=O)c2ccccc2Cl)c1=O)c1c(F)cc(F)cc1F [Compound 11-516] | 90% | 90% | 100% | 80% | 70% | 70% | 100% | 80% |
| CC(C)N(C(=O)n1cnn(S(=O)(=O)c2ccccc2Cl)c1=O)c1ccc(F)cc1Cl [Compound 11-519] | 100% | 100% | 100% | 70% | 70% | 80% | 80% | 70% |
| Cc1ccc(N(C(=O)n2cnn(S(=O)(=O)c3ccccc3Cl)c2=O)C(C)C)c(F)c1 [Compound 11-526] | 80% | 90% | 90% | 80% | 80% | 90% | 90% | 80% |
